Measured values from publication PMC5218480 (PLoS ONE, 2017).

Test system: MV-4-11 cells
Assay: Gene expression microarray analysis (Affymetrix PrimeView) and GSEA
Type: cell-based, human
Design: RFU PODN (11730768_x_at) / Fold change /veh PODN (11730768_x_at) / RFU LINC00158 (11744669_a_at) / Fold change /veh LINC00158 (11744669_a_at) / RFU DUSP10 (11751237_a_at) / Fold change /veh DUSP10 (11751237_a_at) / RFU ID3 (11757404_x_at) / Fold change /veh ID3 (11757404_x_at) / RFU PLEKHG5 (11737974_s_at) / Fold change /veh PLEKHG5 (11737974_s_at) / RFU LRRC4B (11730491_at) / Fold change /veh LRRC4B (11730491_at) / RFU GIMAP4 (11747438_a_at) / Fold change /veh GIMAP4 (11747438_a_at) / RFU KRT8 (11758183_x_at) / Fold change /veh KRT8 (11758183_x_at) / RFU CNN1 (11734310_a_at) / Fold change /veh CNN1 (11734310_a_at) / RFU VPS37D (11726825_at) / Fold change /veh VPS37D (11726825_at) / RFU C10orf10 (11716522_x_at) / Fold change /veh C10orf10 (11716522_x_at) / RFU KIR2DL2 /// KIR2DL4 /// KIR2DL5A /// KIR2DL5B /// KIR2DS1 /// KIR2DS2 /// KIR2DS3 /// KIR2DS4 /// KIR3DL3 /// KIR3DL3 /// KIR3DS1 (11738374_at) / Fold change /veh KIR2DL2 /// KIR2DL4 /// KIR2DL5A /// KIR2DL5B /// KIR2DS1 /// KIR2DS2 /// KIR2DS3 /// KIR2DS4 /// KIR3DL3 /// KIR3DL3 /// KIR3DS1 (11738374_at) / RFU C1QL1 (11718748_at) / Fold change /veh C1QL1 (11718748_at) / RFU TMPRSS4 (11747572_a_at) / Fold change /veh TMPRSS4 (11747572_a_at) / RFU HAMP (11756126_x_at) / Fold change /veh HAMP (11756126_x_at) / RFU RNFT2 (11725882_a_at) / Fold change /veh RNFT2 (11725882_a_at) / RFU NR4A2 (11747474_a_at) / Fold change /veh NR4A2 (11747474_a_at) / RFU ABCC12 (11746883_a_at) / Fold change /veh ABCC12 (11746883_a_at) / RFU TMEM136 (11760407_x_at) / Fold change /veh TMEM136 (11760407_x_at) / RFU CLDN22 /// WWC2 (11732394_at) / Fold change /veh CLDN22 /// WWC2 (11732394_at) / RFU HLA-DPB1 (11760878_x_at) / Fold change /veh HLA-DPB1 (11760878_x_at) / RFU SPINT1 (11716480_a_at) / Fold change /veh SPINT1 (11716480_a_at) / RFU GAP43 (11754022_s_at) / Fold change /veh GAP43 (11754022_s_at) / RFU A4GNT (11735810_at) / Fold change /veh A4GNT (11735810_at) / RFU PRB3 (11715151_x_at) / Fold change /veh PRB3 (11715151_x_at) / RFU TUBB4B (11761932_at) / Fold change /veh TUBB4B (11761932_at) / RFU CAPN14 (11732068_a_at) / Fold change /veh CAPN14 (11732068_a_at) / RFU TMCC2 (11721928_a_at) / Fold change /veh TMCC2 (11721928_a_at) / RFU IRGQ (11745062_a_at) / Fold change /veh IRGQ (11745062_a_at) / RFU FAM174B (11720279_a_at) / Fold change /veh FAM174B (11720279_a_at) / RFU TMPRSS4 (11748680_a_at) / Fold change /veh TMPRSS4 (11748680_a_at) / RFU FAM212B (11763350_a_at) / Fold change /veh FAM212B (11763350_a_at) / RFU PLEKHG5 (11743358_a_at) / Fold change /veh PLEKHG5 (11743358_a_at) / RFU ZSCAN30 (11745921_a_at) / Fold change /veh ZSCAN30 (11745921_a_at) / RFU CMKLR1 (11741424_a_at) / Fold change /veh CMKLR1 (11741424_a_at) / RFU LOC101060620 /// MAPK8IP1 (11723275_at) / Fold change /veh LOC101060620 /// MAPK8IP1 (11723275_at) / RFU SPTSSB (11747773_x_at) / Fold change /veh SPTSSB (11747773_x_at) / RFU PRSS12 (11739890_at) / Fold change /veh PRSS12 (11739890_at) / RFU BIN1 (11741810_x_at) / Fold change /veh BIN1 (11741810_x_at) / RFU WNT11 (11732464_a_at) / Fold change /veh WNT11 (11732464_a_at) / RFU C10orf10 (11716521_a_at) / Fold change /veh C10orf10 (11716521_a_at) / RFU C5orf56 (11738089_at) / Fold change /veh C5orf56 (11738089_at) / RFU CYB561 (11721691_x_at) / Fold change /veh CYB561 (11721691_x_at) / RFU ANKRD19P (11752326_a_at) / Fold change /veh ANKRD19P (11752326_a_at) / RFU OR2T12 /// OR2T33 /// OR2T8 (11738714_s_at) / Fold change /veh OR2T12 /// OR2T33 /// OR2T8 (11738714_s_at) / RFU VCAN (11748164_a_at) / Fold change /veh VCAN (11748164_a_at) / RFU JSRP1 (11732532_at) / Fold change /veh JSRP1 (11732532_at) / RFU KRTAP10-11 (11738290_x_at) / Fold change /veh KRTAP10-11 (11738290_x_at) / RFU MYO3A (11730013_a_at) / Fold change /veh MYO3A (11730013_a_at) / RFU EBF3 (11725865_a_at) / Fold change /veh EBF3 (11725865_a_at) / RFU CAMK2N1 (11719241_x_at) / Fold change /veh CAMK2N1 (11719241_x_at) / RFU C5orf56 (11738088_a_at) / Fold change /veh C5orf56 (11738088_a_at) / RFU OLFML3 (11715873_a_at) / Fold change /veh OLFML3 (11715873_a_at) / RFU LOC100653217 /// NTM (11731650_a_at) / Fold change /veh LOC100653217 /// NTM (11731650_a_at) / RFU MAPK11 (11762145_a_at) / Fold change /veh MAPK11 (11762145_a_at) / RFU FIZ1 (11724087_x_at) / Fold change /veh FIZ1 (11724087_x_at) / RFU OASL (11726364_x_at) / Fold change /veh OASL (11726364_x_at) / RFU SOX15 (11748057_x_at) / Fold change /veh SOX15 (11748057_x_at) / RFU CD79A (11719716_a_at) / Fold change /veh CD79A (11719716_a_at) / RFU HIST1H1D (11736915_at) / Fold change /veh HIST1H1D (11736915_at) / RFU CASKIN2 (11723855_a_at) / Fold change /veh CASKIN2 (11723855_a_at) / RFU LOC730098 (11760151_x_at) / Fold change /veh LOC730098 (11760151_x_at) / RFU OR4N2 (11742367_at) / Fold change /veh OR4N2 (11742367_at) / RFU PRRT2 (11749266_a_at) / Fold change /veh PRRT2 (11749266_a_at) / RFU SNX32 (11753110_a_at) / Fold change /veh SNX32 (11753110_a_at) / RFU CDHR5 (11726645_a_at) / Fold change /veh CDHR5 (11726645_a_at) / RFU RCAN1 (11760418_a_at) / Fold change /veh RCAN1 (11760418_a_at) / RFU FAM167A (11723789_a_at) / Fold change /veh FAM167A (11723789_a_at) / RFU FAM26E (11764081_at) / Fold change /veh FAM26E (11764081_at) / RFU ISYNA1 (11749810_s_at) / Fold change /veh ISYNA1 (11749810_s_at) / RFU ACY1 (11761880_at) / Fold change /veh ACY1 (11761880_at) / RFU 11764098_at / Fold change /veh 11764098_at / RFU SAMD14 (11745864_x_at) / Fold change /veh SAMD14 (11745864_x_at) / RFU NPB (11741838_a_at) / Fold change /veh NPB (11741838_a_at) / RFU TMPRSS6 (11731388_a_at) / Fold change /veh TMPRSS6 (11731388_a_at) / RFU KRTAP10-2 (11738614_at) / Fold change /veh KRTAP10-2 (11738614_at) / RFU ARHGAP8 /// PRR5-ARHGAP8 (11727945_x_at) / Fold change /veh ARHGAP8 /// PRR5-ARHGAP8 (11727945_x_at) / RFU KRTAP5-7 /// NADSYN1 (11734609_at) / Fold change /veh KRTAP5-7 /// NADSYN1 (11734609_at) / RFU RASL12 (11751679_a_at) / Fold change /veh RASL12 (11751679_a_at) / RFU CDKN2B (11736163_a_at) / Fold change /veh CDKN2B (11736163_a_at) / RFU PRF1 (11729649_at) / Fold change /veh PRF1 (11729649_at) / RFU, ZNF638 /// ZNF638-IT1 / Fold change vs veh, ZNF638 /// ZNF638-IT1 / RFU, PANK3 / Fold change vs veh, PANK3 / RFU, SH3YL1 / Fold change vs veh, SH3YL1 / RFU, ZEB2 / Fold change vs veh, ZEB2 / RFU, NRIP1 / Fold change vs veh, NRIP1 / RFU, PTTG1IP / Fold change vs veh, PTTG1IP / RFU, CAPN2 / Fold change vs veh, CAPN2 / RFU, MED14 / Fold change vs veh, MED14 / RFU, SNORA58 / Fold change vs veh, SNORA58 / RFU, C1orf63 / Fold change vs veh, C1orf63 / RFU, LRRFIP1 / Fold change vs veh, LRRFIP1 / RFU, NDUFAF7 / Fold change vs veh, NDUFAF7 / RFU, SLC12A2 / Fold change vs veh, SLC12A2 / RFU, IBTK / Fold change vs veh, IBTK / RFU, ESF1 / Fold change vs veh, ESF1 / Fold change vs veh, TMEM50B / RFU, TAOK1 / Fold change vs veh, TAOK1 / RFU, ACBD3 / Fold change vs veh, ACBD3 / RFU, TMA16 / Fold change vs veh, TMA16 / RFU, RWDD3 / Fold change vs veh, RWDD3 / RFU, BCAT1 / Fold change vs veh, BCAT1 / RFU, EDEM3 / Fold change vs veh, EDEM3 / RFU, TMEM33 / Fold change vs veh, TMEM33 / RFU, WDR75 / Fold change vs veh, WDR75 / RFU, AHCTF1 / Fold change vs veh, AHCTF1 / RFU, TFRC / Fold change vs veh, TFRC / RFU, ZDHHC17 / Fold change vs veh, ZDHHC17 / RFU, NOM1 / Fold change vs veh, NOM1 / RFU, ARL8B / Fold change vs veh, ARL8B / RFU, ZBTB11 / Fold change vs veh, ZBTB11 / RFU, TAMM41 / Fold change vs veh, TAMM41 / RFU, KIAA1704 /// LOC100996395 / Fold change vs veh, KIAA1704 /// LOC100996395 / RFU, ING1 / Fold change vs veh, ING1 / RFU, TRMT61B / Fold change vs veh, TRMT61B / RFU, FUBP3 / Fold change vs veh, FUBP3 / RFU, TP53 / Fold change vs veh, TP53 / RFU, TNKS2 / Fold change vs veh, TNKS2 / RFU, ZFP14 / Fold change vs veh, ZFP14 / RFU, ACTR2 / Fold change vs veh, ACTR2 / RFU, PPP3R1 / Fold change vs veh, PPP3R1 / RFU, PIK3R1 / Fold change vs veh, PIK3R1 / RFU, HNRNPA1 / Fold change vs veh, HNRNPA1 / RFU, RNF170 / Fold change vs veh, RNF170 / RFU, ZNF28 / Fold change vs veh, ZNF28 / RFU, RNGTT / Fold change vs veh, RNGTT / RFU, OGT / Fold change vs veh, OGT / RFU, BRD1 / Fold change vs veh, BRD1 / RFU, MARS / Fold change vs veh, MARS / RFU, ZNF655 / Fold change vs veh, ZNF655 / RFU, FAHD1 / Fold change vs veh, FAHD1 / RFU, BDP1 / Fold change vs veh, BDP1 / RFU, LRRCC1 / Fold change vs veh, LRRCC1 / RFU, ARID1A / Fold change vs veh, ARID1A / RFU, ZNF146 / Fold change vs veh, ZNF146 / RFU, ZNF330 / Fold change vs veh, ZNF330 / RFU, GPN3 / Fold change vs veh, GPN3 / RFU, C9orf123 / Fold change vs veh, C9orf123 / RFU, N4BP2L2 / Fold change vs veh, N4BP2L2 / RFU, ARFIP1 / Fold change vs veh, ARFIP1 / RFU, FAM179B / Fold change vs veh, FAM179B / RFU, BCL10 / Fold change vs veh, BCL10 / RFU, UHRF1BP1L / Fold change vs veh, UHRF1BP1L / RFU, BET1 / Fold change vs veh, BET1 / RFU, CNOT2 / Fold change vs veh, CNOT2 / RFU, ZNF268 / Fold change vs veh, ZNF268 / Fold change vs veh, ZNF507 / RFU, DGCR2 / Fold change vs veh, DGCR2 / RFU, WDSUB1 / Fold change vs veh, WDSUB1 / Fold change vs veh, HSP90B1 /// MIR3652 / RFU, ADSS / Fold change vs veh, ADSS / RFU, GK / Fold change vs veh, GK / RFU, ZNF148 / Fold change vs veh, ZNF148 / RFU, TAF9 / Fold change vs veh, TAF9 / RFU, SLC1A5 / Fold change vs veh, SLC1A5 / RFU, SLMO2 / Fold change vs veh, SLMO2 / RFU, ABCC4 / Fold change vs veh, ABCC4 / RFU, LOC101060439 /// RAP1B / Fold change vs veh, LOC101060439 /// RAP1B / RFU, RFX7 / Fold change vs veh, RFX7 / RFU, GTPBP10 / Fold change vs veh, GTPBP10 / RFU, CNEP1R1 / Fold change vs veh, CNEP1R1 / RFU, BIVM-ERCC5 /// ERCC5 / Fold change vs veh, BIVM-ERCC5 /// ERCC5 / RFU, ILF3 / Fold change vs veh, ILF3 / RFU 11762660_at / Fold change /veh 11762660_at / RFU VCAN (11757783_s_at) / Fold change /veh VCAN (11757783_s_at) / RFU DDX43 (11728927_at) / Fold change /veh DDX43 (11728927_at) / RFU KRT8 (11758188_x_at) / Fold change /veh KRT8 (11758188_x_at) / RFU NKD1 (11759106_at) / Fold change /veh NKD1 (11759106_at) / RFU SRD5A1 (11742802_a_at) / Fold change /veh SRD5A1 (11742802_a_at) / RFU TPSAB1 /// TPSB2 (11721975_s_at) / Fold change /veh TPSAB1 /// TPSB2 (11721975_s_at) / RFU GSTM3 (11746129_a_at) / Fold change /veh GSTM3 (11746129_a_at) / RFU IL23R (11737362_x_at) / Fold change /veh IL23R (11737362_x_at) / RFU TMEM51 (11727254_a_at) / Fold change /veh TMEM51 (11727254_a_at) / RFU PIWIL2 (11732686_x_at) / Fold change /veh PIWIL2 (11732686_x_at) / RFU ORM1 (11744905_x_at) / Fold change /veh ORM1 (11744905_x_at) / RFU CCDC152 (11743942_at) / Fold change /veh CCDC152 (11743942_at) / RFU ECM1 (11717891_a_at) / Fold change /veh ECM1 (11717891_a_at) / RFU IL23R (11748794_a_at) / Fold change /veh IL23R (11748794_a_at) / RFU TNFAIP8L3 (11732012_x_at) / Fold change /veh TNFAIP8L3 (11732012_x_at) / RFU MBOAT4 (11741988_at) / Fold change /veh MBOAT4 (11741988_at) / RFU 11764193_at / Fold change /veh 11764193_at / RFU TMEM53 (11763286_at) / Fold change /veh TMEM53 (11763286_at) / RFU MAGEB2 (11727129_at) / Fold change /veh MAGEB2 (11727129_at) / RFU TMEM200A (11744735_a_at) / Fold change /veh TMEM200A (11744735_a_at) / RFU CCDC152 (11751479_a_at) / Fold change /veh CCDC152 (11751479_a_at) / RFU FAM211A (11726209_a_at) / Fold change /veh FAM211A (11726209_a_at) / RFU RGS16 (11746705_a_at) / Fold change /veh RGS16 (11746705_a_at) / RFU VCAN (11755009_s_at) / Fold change /veh VCAN (11755009_s_at) / RFU RHOB (11743442_s_at) / Fold change /veh RHOB (11743442_s_at) / RFU RGS16 (11720943_a_at) / Fold change /veh RGS16 (11720943_a_at) / RFU RGS16 (11720944_at) / Fold change /veh RGS16 (11720944_at) / RFU, VPS4B / Fold change vs veh, VPS4B / RFU, CREB1 / Fold change vs veh, CREB1 / RFU, DNAJC13 / Fold change vs veh, DNAJC13 / RFU, GNAQ / Fold change vs veh, GNAQ / RFU, CDK5R1 / Fold change vs veh, CDK5R1 / RFU, ZRANB3 / Fold change vs veh, ZRANB3 / RFU, CUL4A / Fold change vs veh, CUL4A / RFU, CCNY / Fold change vs veh, CCNY / RFU, UFL1 / Fold change vs veh, UFL1 / RFU, COG3 / Fold change vs veh, COG3 / RFU, DIAPH2 / Fold change vs veh, DIAPH2 / RFU, SKA2 / Fold change vs veh, SKA2 / RFU, AFF3 / Fold change vs veh, AFF3 / RFU, LMF1 / Fold change vs veh, LMF1 / RFU, IPO11 / Fold change vs veh, IPO11 / RFU, DFFB / Fold change vs veh, DFFB / RFU, FOXP1 / Fold change vs veh, FOXP1 / RFU, CARD8 / Fold change vs veh, CARD8 / RFU, STRN3 / Fold change vs veh, STRN3 / RFU, ADK / Fold change vs veh, ADK / RFU, RASSF2 / Fold change vs veh, RASSF2 / RFU, WIPF1 / Fold change vs veh, WIPF1 / RFU, LARP1B / Fold change vs veh, LARP1B / RFU, RASA1 / Fold change vs veh, RASA1 / RFU, RB1 / Fold change vs veh, RB1 / RFU, PPFIA1 / Fold change vs veh, PPFIA1 / RFU, MAT2A / Fold change vs veh, MAT2A / RFU, CCT5 / Fold change vs veh, CCT5 / RFU, WDR92 / Fold change vs veh, WDR92 / RFU, CUX1 / Fold change vs veh, CUX1 / RFU, TTC7A / Fold change vs veh, TTC7A / RFU, TMEM135 / Fold change vs veh, TMEM135 / RFU, DEPTOR / Fold change vs veh, DEPTOR / RFU, CPM / Fold change vs veh, CPM / RFU, DNAJB6 / Fold change vs veh, DNAJB6 / RFU, CACNA2D3 / Fold change vs veh, CACNA2D3 / RFU, DTX4 / Fold change vs veh, DTX4 / RFU, TFCP2 / Fold change vs veh, TFCP2 / RFU, GMCL1 /// GMCL1P1 / Fold change vs veh, GMCL1 /// GMCL1P1 / RFU, AEBP2 / Fold change vs veh, AEBP2 / RFU, SNHG1 /// SNORD22 /// SNORD25 /// SNORD26 /// SNORD27 /// SNORD28 /// SNORD29 /// SNORD31 / Fold change vs veh, SNHG1 /// SNORD22 /// SNORD25 /// SNORD26 /// SNORD27 /// SNORD28 /// SNORD29 /// SNORD31 / Fold change (Aza/veh), C12orf56 (ProbeSet 11735607_a_at) / Fold change (ACY-1035/veh), C12orf56 (ProbeSet 11735607_a_at) / Fold change (Aza/veh), FGFR1OP (ProbeSet 11751329_s_at) / Fold change (ACY-1035/veh), FGFR1OP (ProbeSet 11751329_s_at) / Fold change (Aza/veh), VPS36 (ProbeSet 11739960_a_at) / Fold change (ACY-1035/veh), VPS36 (ProbeSet 11739960_a_at) / RFU SYPL1 (11715823_x_at) / Fold change /veh SYPL1 (11715823_x_at) / RFU IGFBP7 (11715501_s_at) / Fold change /veh IGFBP7 (11715501_s_at) / RFU REEP3 (11722064_at) / Fold change /veh REEP3 (11722064_at) / RFU IGLL1 (11728026_x_at) / Fold change /veh IGLL1 (11728026_x_at): dose or concentration left out as unconfirmed
Details: ProbeSet 11747937_a_at; LIST D

`Nc1ncn([C@@H]2O[C@H](CO)[C@@H](O)[C@H]2O)c(=O)n1` [azacitidine] was tested, and the “Fold change vs veh, DNAJB6” value was 0.52.
